Source: patent US11549134B2, “Modified amadoriase and method for producing the same, agent for improving surfactant resistance of amadoriase and composition for measuring HbA1c using the same” (Kikkoman Corporation, priority 2013, dated 2023)

Columns and labels:
CFP-T7 [1] = test: Surfactant resistance of amadoriase in presence of buffering agents; format: biochemical, genus Coniochaeta; details: for CFP-T7 Residual Activity (%): 0.01% CTAC, purified CFP-T7; for amadoriase stabilizing effect of the buffer (in words): CFP-T7 in the presence of surfactant
Method: In the above surfactant resistance measuring method, the residual activity of an amadoriase is measured by using various buffers in place of a 30 mM MES/21 mM Tris buffer solution. In this manner, the contribution of the buffer to the amadoriase residual activity can be evaluated. For example, in place of the 30 mM MES/21 mM Tris buffer solution (pH 6.5), e.g., a phosphate buffer solution (pH 7.0), a citrate buffer solution (pH 6.0), a HEPES buffer solution (pH 7.0) or an ACES buffer solution (pH 7.0) can be used. Other conditions and procedure can be the same as in the above surfactant resistance measuring method.
It was studied whether the surfactant resistance of an amadoriase is enhanced or not when a buffering agent other than a 30 mM MES/21 mM Tris buffering agent (pH 6.5) was used. Using CFP-T7 purified as described above as a sample, the final concentration of CTAC was set at 0.01% to evaluate the surfactant resistance of CFP-T7 according to the measurement method for surfactant resistance in Example 1 in the presence of any of various buffering agents, specifically a phosphate buffering agent containing phosphoric acid and potassium phosphate (pH 7.0), a citrate buffering agent containing citric acid and sodium citrate (pH 6.0), an MES buffering agent containing MES and it sodium salt (pH 7.0), an HEPES buffering agent containing HEPES and its sodium salt (pH 7.0), and an ACES buffering agent containing ACES and its sodium salt (pH 7.0), in place of the 30 mM MES/21 mM Tris buffering agent (pH 6.5).

CFP-T7 [2] = test: Surfactant resistance of amadoriase during addition of each stabilizer (CFP-T7); format: biochemical, genus Coniochaeta; details: 500 mM HEPES (pH 7.0), 0.01% CTAC
Method: In the above surfactant resistance measuring method, various stabilizers are added and the residual activity of an amadoriase is measured in order to evaluate the effect of the stabilizers. […] The concentration sufficient to provide a buffer capacity to a solution refers to the concentration at which pH is maintained within a predetermined range (for example pH5 to 10, pH6 to 8) without having pH change due to other reagents added to the solution. A concentration insufficient to provide a buffer capacity to a solution refers to the concentration at which pH changes by addition of other reagents to the solution and pH falls outside a particular range. These concentrations vary depending upon the type and amount of other reagents to be added to a solution; however, a person skilled in the art can appropriately determine the concentration by conventional methods. Other conditions and procedure can be the same as in the above surfactant resistance measuring method.
It was studied whether or not the addition of any of various stabilizers enhanced the surfactant resistance of an amadoriase. Phosphoric acid, a tricarboxylic acid (e.g., citric acid), a dicarboxylic acid (e.g., malic acid, maleic acid, citraconic acid, malonic acid, glutaric acid, or tartaric acid), a monpcarboxylic acid (e.g., acetic acid), MES, MOPS, MOPSO, or ammonium sulfate was used as a stabilizer. As a Comparative Example, CHES was used. To prevent change in pH when adding the stabilizer, 500 mM HEPES (pH 7.0) was used as a buffer solution; CFP-T7 purified as described above was used as a sample; the final concentration of CTAC was set at 0.01%; and any of the stabilizers was further added to evaluate the surfactant resistance of CFP-T7 according to the measurement method for surfactant resistance in Example 1. Using a 500 mM HEPES (pH 7.0) buffering agent and CFP-D2 purified as described above as a sample, any of the stabilizers was further added, and the surfactant resistance of CFP-D2 was evaluated according to the measurement method for surfactant resistance in Example 1 although under more harsh surfactant treatment conditions in which the final concentration of CTAC was set at 0.08% and the treatment temperature at 37° C.

PnFX = test: Surfactant resistance of PnFX during addition of each stabilizer; format: biochemical, Phaeosphaeria nodorum; details: Stabilizer 20 mM; 300 mM HEPES (pH 7.0); 0.04% CTAC
Method: The same stabilizers as those described above were used as stabilizers; 300 mM HEPES (pH 7.0) was used as a buffering agent to prevent a change in pH when the stabilizers was each added; PnFX purified as described above was used as a sample; the final concentration of CTAC was set at 0.04%; and the surfactant resistance of PnFX was evaluated as described above.

[3] = Measurement of fructosyl peptide sample (αFVH) under mixing of CTAC, change in absorbance at 751 nm; format: biochemical; details: for Amount of Change in Absorbance at Wavelength of 751 nm under Mixing of Each Concentration of CTAC: as in Example 5, Table 7
Method: The purified enzyme of CFP-T7 and CFP-D7 obtained in Example 3-2 was used to measure a sample as shown below. The activity values of CFP-T7 and CFP-D7 were determined using (reagent 1) adjusted to pH 7.0 with αFVH at a final concentration of 5 mM as a substrate according to the method for measuring amadoriase activity.
(Reagent 4) αFVH (125 mg) was dissolved in ion-exchanged water, the volume of the solution was fixed to 10 ml, and thereby a 30 mM substrate solution was obtained. In addition, the resultant was diluted by 1/714 with a CTAC solution to provide a 42 μM αFVH/0% to 0.2% CTAC solution.
(Reagent 6) (50 μl) was added to a mixed solution of 135 μl of (reagent 5) warmed at 37° C. for 5 minutes in advance and 25 μl of the sample prepared in (11) above to start reaction, and absorbance at a wavelength of 751 nm after reaction at 37° C. for 5 minutes was measured using an automated analyzer, Bio Majesty JCA-BM1650 (from JEOL Ltd.). Absorbance (reagent blank) at a wavelength of 751 nm measured by a similar operation for (reagent 4) prepared using ion-exchanged water in place of the substrate solution was used as a control to calculate the amount of change in absorbance (difference) when each sample was measured, using the following equation. The final concentration of a colorimetric substrate, DA-64, was 0.15 mM; the final concentration of αFVH in the case of the presence of a substrate was 5 μM; and the length (optical path) of the cell used for absorbance measurement was 1 cm. Amount of change in absorbance=ΔAes−Ae0
The amount of change in absorbance when αFVH/0% to 0.2% CTAC were used as samples was calculated.
The purified preparations of amadoriases obtained as described above were used as samples to measure αFVH under the mixing of CTAC using PnFX and NvFX as in Example 5.

[4] = Buffer Solution 100 mM, pH 7.0 (citrate pH 6.0)

For NC(=O)CNCCS(=O)(=O)O [ACES, N-(2-acetamido)-2-aminoethanesulfonic acid], the “CFP-T7 Residual Activity (%)” value (CFP-T7 [1]; Buffer Solution 20 mM, pH 7.0 (citrate pH 6.0)) was 15.6%, the “CFP-T7 Residual Activity (%)” value (CFP-T7 [1]; [4]) was 16.4% and the “CFP-T7 Residual Activity (%)” value (CFP-T7 [1]; Buffer Solution 200 mM, pH 7.0) was 22.1%.

For CC(=O)O [Acetate, acetic acid], the “CFP-T7 Residual Activity (%)” value (CFP-T7 [2]; Stabilizer 10 mM, Table 9-1) was 8.9%, the “CFP-T7 Residual Activity (%)” value (CFP-T7 [2]; Stabilizer 20 mM, Table 9-1) was 20.7% and the “CFP-T7 Residual Activity (%)” value (CFP-T7 [2]; Stabilizer 50 mM, Table 9-1) was 52.4%. For the same molecule, the “PnFX Residual Activity (%)” value (PnFX) was 42.6%.

In the case of O=S(=O)(O)CCNC1CCCCC1 [CHES, N-cyclohexyl-2-aminoethane sulfonic acid, reference compound], the “stabilizing action of the stabilizer (in words)” value (CFP-T7 [2]; CFP-T7) is reported as “did not have any stabilizing action” and the “CFP-T7 Residual Activity (%)” value (CFP-T7 [2]; Stabilizer 20 mM, Table 9-2) is reported as 3.0%.

In the case of C/C(=C/C(=O)O)C(=O)O [Citraconate, citraconic acid], the “CFP-T7 Residual Activity (%)” value (CFP-T7 [2]; Stabilizer 2 mM, Table 9-2) is reported as 18.5% and the “CFP-T7 Residual Activity (%)” value (CFP-T7 [2]; Stabilizer 10 mM, Table 9-2) is reported as 89.1%.

In the case of O=C(O)CCCC(=O)O [Glutarate, glutaric acid], the “CFP-T7 Residual Activity (%)” value (CFP-T7 [2]; Stabilizer 2 mM, Table 9-2) is reported as 4.5% and the “CFP-T7 Residual Activity (%)” value (CFP-T7 [2]; Stabilizer 10 mM, Table 9-2) is reported as 55.9%.

With O=S(=O)(O)CCN1CCN(CCO)CC1 [HEPES, 4-2-hydroxyethyl-1-piperazine-ethanesulfonic acid, reference compound] the “CFP-T7 Residual Activity (%)” value (CFP-T7 [1]; Buffer Solution 50 mM, pH 7.0 (citrate pH 6.0)) was 13.2%, the “CFP-T7 Residual Activity (%)” value (CFP-T7 [1]; [4]) was 13.2% and the “CFP-T7 Residual Activity (%)” value (CFP-T7 [1]; Buffer Solution 150 mM, pH 7.0) was 12.2%. For the same molecule, the “CFP-T7 Residual Activity (%)” value (CFP-T7 [1]; Buffer Solution 300 mM, pH 7.0) was 9.6%, the “amadoriase stabilizing effect of the buffer (in words)” value (CFP-T7 [1]) was “does not have an amadoriase stabilizing effect” and the “amadoriase stabilizing effect of the buffer (in words)” value (CFP-T7 [1]; listed as HEPES buffering agent) was “not observed”.

For O=S(=O)(O)CC(O)CN1CCOCC1 (centres unmarked) [MOPSO, 2-hydroxy-3-morpholino-propanesulfonic acid], the “CFP-T7 Residual Activity (%)” value (CFP-T7 [2]; Stabilizer 10 mM, Table 9-2) was 9.0% and the “CFP-T7 Residual Activity (%)” value (CFP-T7 [2]; Stabilizer 20 mM, Table 9-2) was 23.5%.

For O=C(O)/C=C\C(=O)O [Maleate, maleic acid], the “CFP-T7 Residual Activity (%)” value (CFP-T7 [2]; Stabilizer 2 mM, Table 9-2) was 15.5% and the “CFP-T7 Residual Activity (%)” value (CFP-T7 [2]; Stabilizer 10 mM, Table 9-2) was 81.5%.

In the case of O=C(O)CC(=O)O [Malonate, malonic acid], the “CFP-T7 Residual Activity (%)” value (CFP-T7 [2]; Stabilizer 2 mM, Table 9-2) is reported as 10.8% and the “CFP-T7 Residual Activity (%)” value (CFP-T7 [2]; Stabilizer 10 mM, Table 9-2) is reported as 77.3%.

In the case of O=C(O)C(O)C(O)C(=O)O (centres unmarked) [Tartrate, tartaric acid], the “CFP-T7 Residual Activity (%)” value (CFP-T7 [2]; Stabilizer 2 mM, Table 9-2) is reported as 5.3% and the “CFP-T7 Residual Activity (%)” value (CFP-T7 [2]; Stabilizer 10 mM, Table 9-2) is reported as 70.0%.

B1: NvFX: ketoamine oxidase derived from Neocosmospora vasinfecta, SEQ ID NO: 38 (protein, listed as Neocosmospora vasinfecta)
chain: MTTPRKETTVLIIGGGGTIGSSTALHLLRAGYTPSNITVLDTYPIPSAQSAGNDLNKIMGIRLRNKVDLQLSLEARDMWRNDALFRPFFHNTGRLDCESSAEGVEGLRREYQKLVEAGVGLEETHEWLDSEEAILEKAPLLQREEIEGWKAIWSEEGGWLAAAKAINAIGEELQRQGVRFGFGGAGSFKRPLFADDGTTCIGVETVDGTQYHADKVVLAAGAWSPALVDLEEQCCSKAWVYAHMQLTPEEAAVYKGCPVVYHGDVGFFFEPNENGVIKVCDEFPGFTRFKQHQPYGAPAPKPVSVPRSHAKHPTDTYPDASEESIKRAVSTFLPRFKDKPLFNRALCWCTDTADSALLICEHPRWKNFILATGDSGHSFKLLPIIGKHVVELVEGRLADDLAEAWRWRPGQGDARKSIRAAPAKDLADMPGWKHDQDSESR
For B1, the “measurement of αFVH under the mixing of CTAC (in words)” value [3] was “αFVH could not accurately be measured”, the “Amount of Change in Absorbance at Wavelength of 751 nm under Mixing of Each Concentration of CTAC” value (“Amount of Change in Absorbance” below) ([3]; Mixing of CTAC 0%) was 0.118 and the “Amount of Change in Absorbance” value ([3]; Mixing of CTAC 0.01%) was 0.013. For the same molecule, the “Amount of Change in Absorbance” value ([3]; Mixing of CTAC 0.02%) was 0.013, the “Amount of Change in Absorbance” value ([3]; Mixing of CTAC 0.04%) was 0.007 and the “Amount of Change in Absorbance” value ([3]; Mixing of CTAC 0.06%) was 0.004. For the same molecule, the “Amount of Change in Absorbance” value ([3]; Mixing of CTAC 0.1%) was 0.003 and the “Amount of Change in Absorbance” value ([3]; Mixing of CTAC 0.2%) was 0.001.
